According to ChEMBL document CHEMBL1157741, “Synthesis and antituberculosis activity of novel mefloquine-isoxazole carboxylic esters as prodrugs” (Bioorg Med Chem Lett, 2010):
Values after ≈ are worked out from the molar mass of the structure shown.

How the values were obtained:
Vero = assay: Cytotoxicity against african green monkey Vero cells after 72 hrs; assay type: cell-based; conditions: Chlorocebus sabaeus
[1] = tested on: Mycobacterium tuberculosis; assay: Antitubercular activity against Mycobacterium tuberculosis H37Rv after 72 hrs by microplate alamar blue assay; assay type: functional
[2] = tested on: Mycobacterium tuberculosis; assay: Antitubercular activity against Mycobacterium tuberculosis H37Rv after 28 hrs by low oxygen recovery assay; assay type: functional
[3] = Selectivity index, ratio of IC50 for african green monkey Vero cells to MIC for Mycobacterium tuberculosis H37Rv by microplate alamar blue assay; assay type: functional
[4] = Selectivity index, ratio of IC50 for african green monkey Vero cells to MIC for Mycobacterium tuberculosis H37Rv by low oxygen recovery assay; assay type: functional
[5] = tested on: Mycobacterium tuberculosis; assay: Antitubercular activity against Mycobacterium tuberculosis H37Rv at pH 6.8 by microplate alamar blue assay; assay type: functional
[6] = tested on: Mycobacterium tuberculosis; assay: Antitubercular activity against Mycobacterium tuberculosis H37Rv at pH 6 by microplate alamar blue assay; assay type: functional
[7] = tested on: Mycobacterium tuberculosis; assay: Antitubercular activity against Mycobacterium tuberculosis Erdman infected in mouse J774A.1 cells; assay type: functional
Escherichia coli = assay: Antimicrobial activity against Escherichia coli; assay type: functional
Bacillus anthracis = assay: Antimicrobial activity against Bacillus anthracis; assay type: functional
[8] = Inhibition of CYP; assay type: ADME
[9] = tested on: Mycolicibacterium smegmatis; assay: Antimicrobial activity against Mycobacterium smegmatis; assay type: functional
Candida albicans = assay: Antimicrobial activity against Candida albicans; assay type: functional
Staphylococcus aureus = assay: Antimicrobial activity against Staphylococcus aureus; assay type: functional
[10] = tested on: Mycobacterium tuberculosis; assay: Antimicrobial activity against Mycobacterium tuberculosis Erdman; assay type: functional
[11] = tested on: Mycobacterium tuberculosis; assay: Antitubercular activity against Mycobacterium tuberculosis H37Rv at pH 6.8 by microplate alamar blue assay relative to control; assay type: functional
[12] = Toxicity in po dosed BALB/c mouse assessed as maximum tolerated dose treated for 5 days; assay type: organism-based; conditions: in vivo

SMILES | IC50 (Vero) | MIC [1] | MIC [2] | Selectivity Index [3] | Selectivity Index [4] | other results
CCN(CC)C(=O)c1cc(COc2cc(C(F)(F)F)nc3c(C(F)(F)F)cccc23)on1 | 46.5 µM | > 128 µM | > 128 µM |  |  | 
CCCCCCOC(=O)c1cc(COc2cc(C(F)(F)F)nc3c(C(F)(F)F)cccc23)on1 | > 128 µM | 15.3 µM (≈ 7.5 µg/mL) | 26.7 µM (≈ 13.1 µg/mL) | >8.4 | >4.8 | 
OC(c1cc(C(F)(F)F)nc2c(C(F)(F)F)cccc12)C1CCCCN1 (configuration not stated) [MEFLOQUINE] |  | 13 µM (≈ 4.92 µg/mL) | 7 µM (≈ 2.65 µg/mL) | 0.9 | 1.6 | 
CC(=O)OCc1cc(COc2cc(C(F)(F)F)nc3c(C(F)(F)F)cccc23)on1 | > 128 µM | > 128 µM | > 128 µM |  |  | 
NC(=O)c1cnccn1 [PYRAZINAMIDE] |  |  |  |  |  | MIC [5]: > 4000 µM; MIC [6]: 829 µM (≈ 102 µg/mL)
CCOC(=O)c1cc(COc2ccc3ccc(C(F)(F)F)nc3c2)on1 | > 128 µM | 3.6 µM (≈ 1.32 µg/mL) | 21.6 µM (≈ 7.91 µg/mL) | >25.6 | >5.9 | 
O=C(OCc1ccccc1)c1cc(COc2cc(C(F)(F)F)nc3c(C(F)(F)F)cccc23)on1 | > 128 µM | 26.5 µM (≈ 13.2 µg/mL) | 50.7 µM (≈ 25.2 µg/mL) | >4.8 | >2.5 | 
CCCOC(=O)c1cc(COc2cc(C(F)(F)F)nc3c(C(F)(F)F)cccc23)on1 | > 128 µM | 1.8 µM (≈ 0.807 µg/mL) | 26.1 µM (≈ 11.7 µg/mL) | >71.2 | >4.9 | 
O=C(c1cc(COc2cc(C(F)(F)F)nc3c(C(F)(F)F)cccc23)on1)N1CCCCO1 | > 128 µM | > 128 µM | > 128 µM |  |  | 
NC(=O)c1cc(COc2cc(C(F)(F)F)nc3c(C(F)(F)F)cccc23)on1 | > 128 µM | > 128 µM | > 128 µM |  |  | 
NNC(=O)c1cc(COc2cc(C(F)(F)F)nc3c(C(F)(F)F)cccc23)on1 | > 128 µM | > 128 µM | > 128 µM |  |  | 
CCc1noc(-c2cc(COc3cc(C(F)(F)F)nc4c(C(F)(F)F)cccc34)on2)n1 | > 128 µM | > 128 µM | > 128 µM |  |  | 
CCOC(=O)c1cc(COc2ccc3ccccc3n2)on1 | > 128 µM | 103 µM (≈ 30.8 µg/mL) | 64 µM (≈ 19.1 µg/mL) | >1.2 | >2 | 
CO[C@H]1/C=C/O[C@@]2(C)Oc3c(C)c(O)c4c(O)c(c(/C=N/N5CCN(C)CC5)c(O)c4c3C2=O)NC(=O)/C(C)=C\C=C\[C@H](C)[C@H](O)[C@@H](C)[C@@H](O)[C@@H](C)[C@H](OC(C)=O)[C@@H]1C [RIFAMPIN] |  | 0.1 µM (≈ 0.0823 µg/mL) | 2 µM (≈ 1.65 µg/mL) |  |  | MIC [5]: 0.1 µM (≈ 0.0823 µg/mL)
CCOC(=O)c1cc(COc2ccc3cccnc3c2)on1 | 108 µM | 10.8 µM (≈ 3.22 µg/mL) | 40.3 µM (≈ 12 µg/mL) | >9.9 | >2.7 | 
CCOC(=O)c1cc(COc2cc(C(F)(F)F)nc3c(C(F)(F)F)cccc23)on1 | > 128 µM | 0.9 µM (≈ 0.391 µg/mL) | 12.1 µM (≈ 5.25 µg/mL) | >142.2 | >10.5 | EC90 [7]: 4.1 µM; EC99 [7]: 18.3 µM; MIC (Escherichia coli): > 128 µM; MIC (Bacillus anthracis): > 128 µM; inhibition (INH) [8]: Not Active; MIC [9]: > 128 µM; MIC (Candida albicans): > 128 µM; MIC (Staphylococcus aureus): > 128 µM; MIC [10]: 1.74 µM (≈ 0.756 µg/mL); MIC [5]: 0.9 µM (≈ 0.391 µg/mL); MIC [6]: 0.1 µM (≈ 0.0434 µg/mL)
O=C(OCCC(F)(F)F)c1cc(COc2cc(C(F)(F)F)nc3c(C(F)(F)F)cccc23)on1 | > 128 µM | 25 µM (≈ 12.6 µg/mL) | 29.9 µM (≈ 15 µg/mL) | >5.1 | >4.3 | 
CCOC(=O)c1cc(COc2ccc3cc[nH]c3c2)on1 | > 128 µM | 8.6 µM (≈ 2.46 µg/mL) | 42.9 µM (≈ 12.3 µg/mL) | >14.9 | >2.9 | 
CCOC(=O)c1cc(COc2ccnc3ccccc23)on1 | > 128 µM | 25.1 µM (≈ 7.49 µg/mL) | 11.3 µM (≈ 3.37 µg/mL) | >5.1 |  | 
NNC(=O)c1ccncc1 [ISONIAZID] |  |  |  |  |  | MIC [5]: 0.1 µM (≈ 0.0137 µg/mL); MIC [6]: 0.1 µM (≈ 0.0137 µg/mL)
OCc1cc(COc2cc(C(F)(F)F)nc3c(C(F)(F)F)cccc23)on1 | > 128 µM | > 128 µM | > 128 µM |  |  | 
CCOC(=O)c1cc(COc2cccc3cccnc23)on1 | > 128 µM | 39.8 µM (≈ 11.9 µg/mL) | 125 µM (≈ 37.3 µg/mL) | >3.2 | >1 | 
CCCCOC(=O)c1cc(COc2cc(C(F)(F)F)nc3c(C(F)(F)F)cccc23)on1 | 106 µM | 0.9 µM (≈ 0.416 µg/mL) | 9.9 µM (≈ 4.58 µg/mL) | >109.1 | >10.6 | 
CCOC(=O)c1cc(COc2ccc3ncccc3c2)on1 | > 128 µM | 7.4 µM (≈ 2.21 µg/mL) | 12.8 µM (≈ 3.82 µg/mL) | >17.3 | >10 | 
CCOC(=O)c1cc(COc2cccc3ncccc23)on1 | > 128 µM | 35.1 µM (≈ 10.5 µg/mL) | 31.1 µM (≈ 9.28 µg/mL) | >3.6 | >4.1 | 
O=C(O)c1cc(COc2cc(C(F)(F)F)nc3c(C(F)(F)F)cccc23)on1 |  |  |  |  |  | Activity [11]: 89%; MTD at 120 h [12]: 400 mg/kg; MIC (Escherichia coli): > 128 µM; MIC (Bacillus anthracis): 32 µM (≈ 13 µg/mL); MIC [9]: > 128 µM; MIC (Candida albicans): > 128 µM; MIC (Staphylococcus aureus): 22 µM (≈ 8.94 µg/mL); MIC [10]: > 128 µM; MIC [5]: > 128 µM; MIC [6]: 7.7 µM (≈ 3.13 µg/mL)
CCOC(=O)c1cc(COc2cc(C(F)(F)F)c3nc(C(F)(F)F)cc(OCc4cc(C(=O)OCC)no4)c3c2)on1 | > 128 µM | 17.6 µM (≈ 10.6 µg/mL) | 15.6 µM (≈ 9.41 µg/mL) | >7.3 | >8.2 | 
CCOC(=O)c1cc(COc2ccc([N+](=O)[O-])c(C(F)(F)F)c2)on1 | > 128 µM | 3.5 µM (≈ 1.26 µg/mL) | 62.2 µM (≈ 22.4 µg/mL) | >36.6 | >2.1 | 
